Measurements reported in ChEMBL document CHEMBL1153532, “Design and evaluation of novel biphenyl sulfonamide derivatives with potent histamine H(3) receptor inverse agonist activity” (J Med Chem, 2009).
Values belong to the compound of their own block, whether it stands above or below them. Active and inactive are the calls of the source. The calls are words filed in the database; no cut-off is given here.

What was measured:
hERG (KCNH2) = hERG (KCNH2) (Homo sapiens, UniProt Q12809); assay: Inhibition of human ERG at 3 uM by patch clamp assay
Sequence of hERG (KCNH2) (Q12809 whole entry): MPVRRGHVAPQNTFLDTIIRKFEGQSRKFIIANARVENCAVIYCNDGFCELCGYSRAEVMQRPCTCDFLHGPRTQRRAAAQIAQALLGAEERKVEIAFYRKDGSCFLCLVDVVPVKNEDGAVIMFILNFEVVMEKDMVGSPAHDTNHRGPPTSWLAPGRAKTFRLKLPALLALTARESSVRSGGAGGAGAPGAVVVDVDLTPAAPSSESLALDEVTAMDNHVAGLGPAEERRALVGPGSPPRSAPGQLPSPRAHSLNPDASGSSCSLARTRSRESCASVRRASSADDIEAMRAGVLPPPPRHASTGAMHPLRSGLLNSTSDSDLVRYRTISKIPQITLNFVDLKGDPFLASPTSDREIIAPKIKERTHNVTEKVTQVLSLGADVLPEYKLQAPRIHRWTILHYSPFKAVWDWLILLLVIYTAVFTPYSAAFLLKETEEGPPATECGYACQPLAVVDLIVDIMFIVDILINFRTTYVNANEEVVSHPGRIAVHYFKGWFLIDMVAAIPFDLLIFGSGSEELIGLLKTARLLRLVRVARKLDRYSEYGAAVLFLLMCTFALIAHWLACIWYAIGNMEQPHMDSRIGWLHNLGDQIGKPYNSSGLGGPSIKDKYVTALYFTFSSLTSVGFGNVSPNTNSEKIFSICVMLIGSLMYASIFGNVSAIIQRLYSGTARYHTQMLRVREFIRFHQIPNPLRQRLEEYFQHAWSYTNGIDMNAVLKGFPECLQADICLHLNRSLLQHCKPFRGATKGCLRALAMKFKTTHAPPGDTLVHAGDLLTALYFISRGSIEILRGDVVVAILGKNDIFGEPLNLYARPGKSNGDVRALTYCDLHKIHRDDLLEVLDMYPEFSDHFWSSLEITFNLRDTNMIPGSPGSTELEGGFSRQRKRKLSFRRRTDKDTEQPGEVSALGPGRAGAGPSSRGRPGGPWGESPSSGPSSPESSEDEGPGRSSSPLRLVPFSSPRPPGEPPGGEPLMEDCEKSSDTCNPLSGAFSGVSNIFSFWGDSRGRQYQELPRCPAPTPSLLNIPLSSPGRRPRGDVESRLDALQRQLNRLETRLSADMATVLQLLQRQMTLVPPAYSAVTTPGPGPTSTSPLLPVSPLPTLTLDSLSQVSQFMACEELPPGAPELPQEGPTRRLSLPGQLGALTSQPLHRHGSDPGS

Histamine H3 receptor = Histamine H3 receptor (Rattus norvegicus, UniProt Q9QYN8); assay: Displacement of N-[3H]methylhistamine from histamine H3 receptor in rat cortex membrane; format: cell membranes
Sequence of Histamine H3 receptor (Q9QYN8 whole entry): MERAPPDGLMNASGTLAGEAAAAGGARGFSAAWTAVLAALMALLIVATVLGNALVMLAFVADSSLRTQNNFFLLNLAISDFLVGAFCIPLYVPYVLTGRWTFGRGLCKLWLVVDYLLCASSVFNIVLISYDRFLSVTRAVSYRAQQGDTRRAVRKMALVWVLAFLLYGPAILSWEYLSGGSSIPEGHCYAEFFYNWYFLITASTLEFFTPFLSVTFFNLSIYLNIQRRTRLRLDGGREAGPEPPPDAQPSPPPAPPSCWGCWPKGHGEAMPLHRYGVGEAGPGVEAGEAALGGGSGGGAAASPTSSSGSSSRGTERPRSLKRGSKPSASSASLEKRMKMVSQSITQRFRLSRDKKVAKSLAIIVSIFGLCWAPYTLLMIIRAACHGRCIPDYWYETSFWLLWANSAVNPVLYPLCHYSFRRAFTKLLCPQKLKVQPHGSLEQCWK

Rattus norvegicus [1] = assay: Inhibition of (R)-alpha-methyl histamine induced drinking in Sprague-Dawley rat dipsogenia model at 0.3 mg/kg, po administered 0.5 hrs before (R)-alpha-methyl histamine challenge; format: functional
Rattus norvegicus [2] = assay: Inhibition of (R)-alpha-methyl histamine induced drinking in Sprague-Dawley rat dipsogenia model at 1 mg/kg, po administered 0.5 hrs before (R)-alpha-methyl histamine challenge; format: functional
[3] = Drug level in Sprague-Dawley rat brain at 10 mg/kg, po after 0.5 hrs; format: ADME, organism-based; set-up: dose 10 mg/kg, route oral; settings: read-out: Drug uptake
[4] = Tmax in Sprague-Dawley rat at 10 mg/kg, po up to 21 hrs; format: ADME, organism-based; set-up: dose 10 mg/kg, route oral; settings: in vivo
[5] = target: Histamine H4 receptor (Homo sapiens) (UniProt Q9H3N8); assay: Binding affinity to human histamine H4 receptor at 1 uM
[6] = target: Histamine H2 receptor (Homo sapiens) (UniProt P25021); assay: Binding affinity to human histamine H2 receptor at 1 uM
Sequence of Histamine H2 receptor (Homo sapiens) (P25021 whole entry): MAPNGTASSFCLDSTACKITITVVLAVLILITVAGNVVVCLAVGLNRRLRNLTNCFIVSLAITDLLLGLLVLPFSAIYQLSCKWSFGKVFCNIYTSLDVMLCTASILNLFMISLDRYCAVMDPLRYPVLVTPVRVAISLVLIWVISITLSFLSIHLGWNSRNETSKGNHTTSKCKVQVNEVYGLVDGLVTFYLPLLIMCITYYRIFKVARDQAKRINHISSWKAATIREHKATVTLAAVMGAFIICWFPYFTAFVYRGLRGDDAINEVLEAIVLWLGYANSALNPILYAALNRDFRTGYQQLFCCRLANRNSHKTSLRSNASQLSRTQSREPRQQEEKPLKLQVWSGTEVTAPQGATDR

[7] = Plasma concentration in Sprague-Dawley rat at 10 mg/kg, po after 0.5 hrs; format: ADME, organism-based; set-up: dose 10 mg/kg, route oral
[8] = Oral bioavailability in Sprague-Dawley rat at 10 mg/kg, po up to 21 hrs; format: ADME, organism-based; settings: in vivo
[9] = Half life in Sprague-Dawley rat at 10 mg/kg, po up to 21 hrs; format: ADME, organism-based; set-up: dose 10 mg/kg, route oral; settings: in vivo
[10] = target: Histamine H1 receptor (Homo sapiens) (UniProt P35367); assay: Binding affinity to human histamine H1 receptor at 1 uM
Sequence of Histamine H1 receptor (Homo sapiens) (P35367 whole entry): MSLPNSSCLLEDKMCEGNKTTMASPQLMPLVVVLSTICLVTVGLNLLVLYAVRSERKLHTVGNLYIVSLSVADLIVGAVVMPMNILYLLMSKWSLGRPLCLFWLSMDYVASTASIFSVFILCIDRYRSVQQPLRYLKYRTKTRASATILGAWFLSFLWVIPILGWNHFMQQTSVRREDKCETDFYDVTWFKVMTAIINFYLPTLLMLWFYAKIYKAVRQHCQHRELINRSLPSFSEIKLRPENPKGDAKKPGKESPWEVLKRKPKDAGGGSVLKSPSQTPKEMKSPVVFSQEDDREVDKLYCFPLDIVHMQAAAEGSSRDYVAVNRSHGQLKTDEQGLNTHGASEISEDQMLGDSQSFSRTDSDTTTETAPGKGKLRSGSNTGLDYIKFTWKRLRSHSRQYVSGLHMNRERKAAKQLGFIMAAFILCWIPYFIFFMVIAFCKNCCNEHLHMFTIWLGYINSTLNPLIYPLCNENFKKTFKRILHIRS

Rattus norvegicus [11] = assay: Increase in wakefulness in Sprague-Dawley rat at 0.1 mg/kg, po administered 4 hrs after lights out condition measured over 5 hrs period by polysomnographic method; format: functional, organism-based; set-up: dose 0.1 mg/kg
Rattus norvegicus [12] = assay: Increase in wakefulness in Sprague-Dawley rat at 1 mg/kg, po administered 4 hrs after lights out condition measured over 5 hrs period by polysomnographic method; format: functional
Brain = assay: Drug level in Sprague-Dawley rat brain assessed as 4'-[2-((R)-2-Methyl-pyrrolidin-1-yl)-ethyl]-biphenyl-4-sulfonic Acid Amide level at 1 mg/kg, po after 3.5 hrs; format: ADME, organism-based; set-up: dose 1 mg/kg, route oral; settings: in vivo
in vivo = settings: Sprague-Dawley, rat, brain/plasma, po, 10 mg/kg
Rattus norvegicus [13] = assay: Inhibition of (R)-alpha-methyl histamine induced drinking in Sprague-Dawley rat dipsogenia model at 3 mg/kg, po administered 0.5 hrs before (R)-alpha-methyl histamine challenge; format: functional

Structure (SMILES): C[C@@H]1CCCN1CCc1ccc(-c2ccc(S(=O)(=O)NCc3ccccc3)cc2)cc1
inhibition at 3 µM (hERG (KCNH2)): 84%

Ki (Histamine H3 receptor; read-out: pKi (converted)): 0.501 nM
Structure (SMILES): C[C@@H]1CCCN1CCc1ccc(-c2ccc(S(=O)(=O)N3Cc4ccccc4C3)cc2)cc1

Ki (Histamine H3 receptor; read-out: pKi (converted)): 1.41 nM
Structure (SMILES): CCN(CC)S(=O)(=O)c1ccc(-c2ccc(CCN3CCC[C@H]3C)cc2)cc1

Structure (SMILES): C[C@@H]1CCCN1CCc1ccc(-c2ccc(S(=O)(=O)NC3CCC3)cc2)cc1
inhibition at 3 µM (hERG (KCNH2)): 79%

Ki (Histamine H3 receptor; read-out: pKi (converted)): 2.45 nM
Structure (SMILES): C[C@@H]1CCCN1CCc1ccc(-c2ccc(S(=O)(=O)N3CC[C@H](O)C3)cc2)cc1

Ki (Histamine H3 receptor; read-out: pKi (converted)): 11 nM
Structure (SMILES): CCNS(=O)(=O)c1cccc(-c2ccc(CCN3CCC[C@H]3C)cc2)c1

concentration at 0.5 h [3]: 8700 ng/mL
Tmax [4]: 0.2 h
concentration at 0.5 h [7]: 11200 ng/mL
bioavailability [8]: 22%
Kp at 0.5 h (in vivo): 0.78
Ki (Histamine H3 receptor; read-out: Ki): 3 nM
half-life [9]: 2.6 h
Structure (SMILES): COCCNS(=O)(=O)c1ccc(-c2ccc(CCN3CCC[C@H]3C)cc2)cc1
inhibition at 3 µM (hERG (KCNH2)): 29%
inhibition in vivo at 1 mg/kg (Rattus norvegicus [2]): 40.7%
inhibition in vivo at 3 mg/kg (Rattus norvegicus [13]): 96.7%

concentration at 0.5 h [3]: 140 ng/mL
Tmax [4]: 0.8 h
Activity [5]: < 10%
Activity [6]: < 10%
concentration at 0.5 h [7]: 440 ng/mL
bioavailability [8]: 62%
Kp at 0.5 h (in vivo): 0.32
Ki (Histamine H3 receptor; read-out: Ki): 2 nM
half-life [9]: 2.3 h
Activity [10]: < 10%
Structure (SMILES): C[C@@H]1CCCN1CCc1ccc(-c2ccc(S(=O)(=O)NC3CCOCC3)cc2)cc1
inhibition in vivo at 1 mg/kg (Rattus norvegicus [2]): 77.5%
inhibition in vivo at 3 mg/kg (Rattus norvegicus [13]): 85.1%

Ki (Histamine H3 receptor; read-out: pKi (converted)): 0.182 nM
Structure (SMILES): C[C@@H]1CCCN1CCc1ccc(-c2ccc(S(=O)(=O)NCc3ccncc3)cc2)cc1
inhibition at 3 µM (hERG (KCNH2)): 27%

concentration at 0.5 h [3]: 800 ng/g
Structure (SMILES): C[C@@H]1CCCN1CCc1ccc(-c2ccc(S(N)(=O)=O)cc2)cc1

The remaining lines, values behind:

Structure (SMILES): C[C@@H]1CCCN1CCc1ccc(-c2ccc(S(=O)(=O)N3CCS(=O)(=O)CC3)cc2)cc1
Ki (Histamine H3 receptor; read-out: pKi (converted)): 0.933 nM

Structure (SMILES): C[C@@H]1CCCN1CCc1ccc(-c2ccc(S(=O)(=O)NC(C)(C)CO)cc2)cc1
inhibition at 3 µM (hERG (KCNH2)): 37%

Structure (SMILES): C[C@@H]1CCCN1CCc1ccc(-c2ccc(S(=O)(=O)N3CCOCC3)cc2)cc1
inhibition in vivo at 0.3 mg/kg (Rattus norvegicus [1]): 34.1%
inhibition in vivo at 1 mg/kg (Rattus norvegicus [2]): 99.8%
concentration at 0.5 h [3]: 320 ng/mL
Tmax [4]: 1.7 h
Activity [5]: < 10%
Activity [6]: < 10%
concentration at 0.5 h [7]: 160 ng/mL
bioavailability [8]: 12%
Ki (Histamine H3 receptor; read-out: Ki): 2 nM
half-life [9]: 1.2 h
Activity [10]: < 10%

Structure (SMILES): CC(C)NS(=O)(=O)c1cccc(-c2ccc(CCN3CCC[C@H]3C)cc2)c1
Ki (Histamine H3 receptor; read-out: pKi (converted)): 7.94 nM

Structure (SMILES): CCNS(=O)(=O)c1ccc(-c2ccc(CCN3CCC[C@H]3C)cc2)cc1
inhibition in vivo at 1 mg/kg (Rattus norvegicus [2]): 77.6%
concentration at 0.5 h [3]: 3600 ng/mL
Tmax [4]: 0.5 h
Activity (Rattus norvegicus [11]): inactive
Activity [5]: < 10%
Activity (Rattus norvegicus [12]): 40%
Activity [6]: < 10%
concentration at 0.5 h [7]: 1600 ng/mL
bioavailability [8]: 93%
Drug uptake (Brain): 246 ng/mL
Kp at 0.5 h (in vivo): 2.3
half-life [9]: 1.8 h
inhibition in vivo at 3 mg/kg (Rattus norvegicus [13]): 69.6%
Activity [10]: < 10%

Structure (SMILES): CCN(CC)S(=O)(=O)c1cccc(-c2ccc(CCN3CCC[C@H]3C)cc2)c1
Ki (Histamine H3 receptor; read-out: pKi (converted)): 16.2 nM

Structure (SMILES): C[C@@H]1CCCN1CCc1ccc(-c2cccc(S(=O)(=O)N3CCCCC3)c2)cc1
Ki (Histamine H3 receptor; read-out: pKi (converted)): 12.6 nM

Structure (SMILES): C[C@@H]1CCCN1CCc1ccc(-c2ccc(S(=O)(=O)NCC3CC3)cc2)cc1
inhibition at 3 µM (hERG (KCNH2)): 54%
